Test results as given in US20150283095A1, “NANOPARTICLES WITH BIODEGRADABLE AND BIOCOMPATIBLE POLYMER PLGA, LOADED WITH THE DRUG FOR HUMAN USE PENTOXIFYLLINE” (UNIVERSIDAD DE SANTIAGO DE CHILE, priority 2012, published 2015).

Key:
monoarthritis = test: Monoarthritis chronic pain model (complete Freund's adjuvant), paw pressure test; type: in vivo, Sprague-Dawley rats; conditions: PTX administered for 10 days, effect up to 21 days
Protocol: Sprague-Dawley rats weighing approximately 100 g were used. This model was described by Butler (Butler et al, 1992). He was inoculated into the right paw (tibio-tarsal fourth) of rats with 50 uL of complete Freund's adjuvant containing 300 ug Mycobacterium butiricum. This injection produces a localized arthritis syndrome and found to be stable between four and six post-inoculation, weeks During this period there is an establishment of neurogenic pain and hyperalgesia, and this pain is held for more than two months period. Control rats were injected with the vehicle only Mycobacterium butiricum.
All doses of nanoparticles or free drugs were administered by intrathecal (it) in a maximum volume of […], dissolved in artificial cerebrospinal fluid (LCA: 1.3 mm CaCl2, KCl 2.8 mm, 0.9 mm MgCl2, NaHCO3 20 mM, 2.5 mM Na 2 HPO 7H2O, 125 mM NaCl). The injection i.t. it involves administration of the drug into the subarachnoid space between lumbar vertebrae L5 and L6 (Mestre et al, 1994) using a Hamilton syringe with a needle 26Gx1/2”. The entrance to the subarachnoid space evidenced by a slight movement in the tail of the rat, due to the mechanical stimulation of the needle to penetrate the spinal cord meninges. […]

[1] = test system: primary cultures of activated microglia; conditions: LPS-activated microglia treated with propentofylline; cited from earlier work

| Structure (SMILES) | effect on threshold of pain, pressure test of the leg (monoarthritis) | production of tumor necrosis factor (TNF), IL-1β and radicals oxygen [1] |
| --- | --- | --- |
| CC(=O)CCCCn1c(=O)c2c(ncn2C)n(C)c1=O [PTX, 3,7-dimethyl-1-(5-oxo-hexyl)xanthine] | lowers the threshold of pain |  |
| CCCn1cnc2c1c(=O)n(CCCCC(C)=O)c(=O)n2C [propentofylline, 3-methyl-1-(5-oxo-hexyl)-7-propylxanthine] |  | inhibition |
